# Results from patent US20250340591A1, “COMPOSITION FOR PREVENTING OR TREATING INFLAMMATORY BOWEL DISEASE CONTAINING NOVEL COMPOUND” (ANYGEN CO., LTD., priority 2021, published 2025).
# Square brackets hold non-standard residues; d marks the D form. Peptide text beside a SMILES is read from it. * marks the point of attachment. His(Trt) = N[C@@H](Cc1cn(C(c2ccccc2)(c2ccccc2)c2ccccc2)cn1)C(=O)O; dHis(Trt) = N[C@H](Cc1cn(C(c2ccccc2)(c2ccccc2)c2ccccc2)cn1)C(=O)O; dPhe(4-Cl) = N[C@H](Cc1ccc(Cl)cc1)C(=O)O; Lauroyl = CCCCCCCCCCCC(=O)*; Octanoyl = CCCCCCCC(=O)*
# Target: T1, GPR39 (Homo sapiens, UniProt O43194)
# T1 sequence (O43194 1-453): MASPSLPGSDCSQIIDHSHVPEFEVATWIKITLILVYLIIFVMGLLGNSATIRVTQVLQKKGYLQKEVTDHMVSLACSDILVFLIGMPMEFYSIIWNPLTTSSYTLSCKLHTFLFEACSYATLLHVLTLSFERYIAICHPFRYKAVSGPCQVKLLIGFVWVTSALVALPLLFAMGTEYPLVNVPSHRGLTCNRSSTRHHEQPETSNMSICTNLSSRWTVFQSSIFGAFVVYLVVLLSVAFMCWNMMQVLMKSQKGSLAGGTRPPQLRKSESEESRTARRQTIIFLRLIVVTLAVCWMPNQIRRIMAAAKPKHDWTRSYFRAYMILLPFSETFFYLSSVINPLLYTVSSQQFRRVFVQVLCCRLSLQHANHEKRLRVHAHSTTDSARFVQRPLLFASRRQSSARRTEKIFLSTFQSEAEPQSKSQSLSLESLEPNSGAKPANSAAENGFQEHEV
# Assay: luciferase assay system (SRE luciferase reporter gene, CV-1 cells expressing GPR39)
# Format: cell-based
# Design: expressed in transfected cells; host or cells: CV-1 fibroblast cell line (Korea Cell Line Bank), adenoviral transduction at 50 MOI
row,Compound,ECmax (−fold induction over basal) [fold induction over basal]
1,"CCCCCCCC(=O)NCCCC[C@H](NC(=O)[C@H](N)Cc1cn(C(c2ccccc2)(c2ccccc2)c2ccccc2)cn1)C(=O)N[C@H](Cc1ccc(Cl)cc1)C(=O)N[C@H](Cc1ccc(O)cc1)C(=O)O [HKFY-14, ((R)-2-((S)-2-((R)-2-amino-3-(1-trityl-1H-imidazol-4-yl)propanamido)-6-octanamidohexanamido)-3-(4-chlorophenyl)propanoyl)-D-tyrosine] (H-[dHis(Trt)]K(Octanoyl)[dPhe(4-Cl)][dY]-OH)",20.9 ± 1.4
2,"CCCCCCCC(=O)NCCCC[C@H](NC(=O)[C@@H](N)Cc1cn(C(c2ccccc2)(c2ccccc2)c2ccccc2)cn1)C(=O)N[C@@H](Cc1ccccc1)C(=O)N[C@@H](Cc1ccc(O)cc1)C(=O)N[C@@H](CO)C(=O)N[C@@H](Cc1c[nH]cn1)C(=O)N[C@@H](CCC(N)=O)C(=O)N[C@@H](CCC(N)=O)C(=O)N[C@@H](C)C(=O)N[C@@H](CCCNC(=N)N)C(=O)N[C@@H](Cc1ccccc1)C(N)=O [HKFY-40, (S)-2-((2S,5S,8S,11S,14S)-2-((1H-imidazol-4-yl)methyl)-14-((S)-2-amino-3-(1-trityl-1H-imidazol-4-yl)propanamido)-11-benzyl-8-(4-hydroxybenzyl)-5-(hydroxymethyl)-4,7,10,13,20-pentaoxo-3,6,9,12,19-pentaazaheptacosanamido)-N1-((S)-5-amino-1-(((S)-1-(((S)-1-(((S)-1-amino-1-oxo-3-phenylpropan-2-yl)amino)-5-guanidino-1-oxopentan-2-yl)amino)-1-oxopropan-2-yl)amino)-1,5-dioxopentan-2-yl)pentanediamide] (H-[His(Trt)]K(Octanoyl)FYSHQQARF-NH2)",13.4 ± 0.02
3,"CCCCCCCC(=O)NCCCC[C@H](NC(=O)[C@@H](N)Cc1cn(C(c2ccccc2)(c2ccccc2)c2ccccc2)cn1)C(=O)N[C@@H](CC(C)C)C(=O)N[C@@H](Cc1ccc(O)cc1)C(=O)O [HKFY-51, N6-octanoyl-N2-(Nt-trityl-L-histidyl)-L-lysyl-L-leucyl-L-tyrosine] (H-[His(Trt)]K(Octanoyl)LY-OH)",14.4 ± 1.9
4,"CCCCCCCC(=O)NCCCC[C@H](NC(=O)[C@@H](N)CC1=CN(CCC2CCCCC2)CN1CCC1CCCCC1)C(=O)N[C@@H](Cc1ccccc1)C(=O)N[C@@H](Cc1ccc(O)cc1)C(=O)O [HKFY-8, N2-((S)-2-amino-3-(1,3-bis(2-cyclohexylethyl)-2,3-dihydro-1H-imidazol-4-yl)propanoyl)-N6-octanoyl-L-lysyl-L-phenylalanyl-L-tyrosine]",17.3±1.22
5,"CCCCCCCC(=O)NCCCC[C@H](NC(=O)[C@@H](N)Cc1c[nH]c(-c2ccc(C(C)(C)C)cc2)n1)C(=O)N[C@H](Cc1ccc(C)cc1)C(=O)N[C@@H](Cc1ccc(O)cc1)C(=O)O [HKFY-60, ((R)-2-((S)-2-((S)-2-amino-3-(2-(4-(tert-butyl)phenyl)-1H-imidazol-4-yl)propanamido)-6-octanamidohexanamido)-3-(p-tolyl)propanoyl)-L-tyrosine]",28.2 ± 2.5
6,"CCCCCCCCCCCC(=O)NCCCC[C@H](NC(=O)[C@@H](N)Cc1cn(C(c2ccccc2)(c2ccccc2)c2ccccc2)cn1)C(=O)N[C@@H](Cc1ccccc1)C(=O)N[C@@H](Cc1ccc(O)cc1)C(=O)O [HKFY-25, N6-dodecanoyl-N2-(Nt-trityl-L-histidyl)-L-lysyl-L-phenylalanyl-L-tyrosine] (H-[His(Trt)]K(Lauroyl)FY-OH)",7.72 ± 0.57
7,"CCCCCCCC(=O)NCCCC[C@H](NC(=O)[C@@H](N)Cc1cn(-c2ccccc2)c(-c2ccccc2)n1)C(=O)N[C@H](Cc1ccc(C)cc1)C(=O)N[C@@H](Cc1ccc(O)cc1)C(=O)O [HKFY-59, ((R)-2-((S)-2-((S)-2-amino-3-(1,2-diphenyl-1H-imidazol-4-yl)propanamido)-6-octanamidohexanamido)-3-(p-tolyl)propanoyl)-L-tyrosine]",6.76 ± 2.2
